Measurements published in US20090191160A1, “Methods of producing pluripotent stem-like cells” (University of Dayton, priority 2007, published 2009).

Legend:
Type in all cases: cell-based, mouse
[1] = test system: skin fibroblast cells; assay: Conversion (dedifferentiation) of skin fibroblast cells into stem cell-like cells, phase contrast morphology; conditions: for reprogramming / dedifferentiation of skin fibroblast cells into stem cell-like cells: basic medium with SR or lipid-rich BSA versus basic medium only; for conversion of skin fibroblast cells into stem cell-like cells: Thapsigargin 1 μg/ml added to SR-containing medium
Procedure: (§1) Mouse embryonic skin fibroblast cells (MEFs) derived form 13.5 day mouse embryos and adult mouse primary dermal fibroblasts derived from adult mouse skin were cultured in DMEM Dulbecco's modified Eagle's medium (DMEM) with 10% Fetal Bovine Serum (FBS) at 37° C., 10% CO2. After the cells were grown to confluence, the cells were trypsinized, then suspended in SR-containing medium or basic medium without serum. About 10^5 mouse skin fibroblast cells were transferred to 3 ml SR-containing medium in a 6 well plate. SR-containing medium contained basic medium that included DMEM/F12 (Invitrogen 11330-032), 1× non-Essential Amino Acids (Invitrogen 11140-050), 1× L-Glutamine (Invitrogen 25030-018), […] β-mercaptoethanol and 20% Knockout Serum Replacer (Invitrogen 10828-028). 4 ng/mL bFGF (R&D System Cat# 233-FB) and Leukemia inhibitory factor Lif (ESGRO®, Chemicon ESG1107) were added to the SR-containing medium to prevent stem-like cells from differentiating.
Conversion of fibroblast cells to induced pluripotent stem-like cells can be achieved by culturing a mouse embryonic skin fibroblast (MEF), mouse adult skin fibroblast (MAF) or human skin fibroblast cell in DMEM media having 10% fetal bovine serum (FBS) until the cells are confluent. Serum-replacement (SR)-containing media and 0.25% trypsin/EDTA are then warmed (e.g., at 37° C. in a water bath). Media is aspirated from the fibroblast cell culture plate, cells are washed with 1×PBS, and trypsinized via addition of 2 mls of trypsin/EDTA for one minute, followed by removal of all the trypsin solution. 2 mls of the SR human ES medium or DMEM/F12 medium is then added to the cells (without FBS), and cells are resuspended in the medium using a 5 ml pipet, pipeting up and down until no large clumps remain. About 10^5 cells/well are then added to a six well plate, with each well containing 3 mls of SR human ES medium. The cells are then mixed in this media. Cells are then placed in a warm incubator (e.g., 37° C. at 5% or 10% CO2). The cells are passaged every 3 days for a total of five or more passages. Ingredients of SR human stem cell culture medium are: 400 ml DMEM/F12 (Invitrogen 11330-032), 5 ml non-Essential Amino Acids (Invitrogen 11140-050), 2.5 ml L-Glutamine (Invitrogen 25030-018), […] β-mercaptoethanol (Sigma 7522, add 3.5 ul) and 100 ml Knockout Serum Replacer (Invitrogen 10828-028). Optionally, 4 ng/mL bFGF (R&D System Cat# 233-FB) is present. To make FGF stock, 1 ml of DMEM/F12 was added to dissolve 1 vial of 10 ug of FGF, with this solution aliquotted into five vials, then stored at −20° C. bFGF needed to be added freshly to the medium every time the method was performed. Lif was also needed for mouse cell cultures. Formulation of the SR component of serum-free medium also contained AgNO3 and other trace elements. For AgNO3-containing media, 1000× AgNO3 was added to the medium to a final concentration of 0.0001 mg/L.
To investigate the possibility that serum replacement (SR)-containing medium can promote the reprogramming and dedifferentiation of skin fibroblast cells into pluripotent stem-like cells, mouse skin fibroblast cells were cultured in fibroblast growth medium, and were then transferred by trypsinization to plates holding SR-containing medium. […] Twenty-four hours post-transfer, a majority of cells became small, round, bright-edged granulated cells (FIG. 1a). […]

[2] = test system: fibroblast growth factor receptor 3 (FGFR3); assay: Western blotting for FGF Receptor-3 protein in fibroblast cells; conditions: Western blot; for FGFR3 expression: Thapsigargin 1 ug/ml, 24 hour timepoint
From the text: […] […] All Images were acquired in the inverted microscope (Nikon TS100) at 10× magnification using the MetaMorph Imaging Software, and the scale bar is 100 μm.
(§2) (Up-regulation of FGFR3 had been previously shown to play an important role in the reprogramming of primordial germ cells into stem-like cells (Skottman et al. Stem Cell 24:151-167).)
In view of the observed involvement of the FGF signaling pathway, it was then examined whether Ca^2+ might be an important secondary messenger responsible for regulating the reprogramming of fibroblast cells induced by SR containing medium activation of the FGF signaling pathway. Thapsigargin, a tight-binding inhibitor for sarco/endoplasmic reticulum Ca^2+ ATPase, was added to the SR-containing medium at a concentration of 1 μg/ml (Durcova-Hills et al. Stem Cell 24:1441).

[3] = test system: embryonic bodies; assay: In vitro differentiation of embryoid bodies from SR-iPS cells; conditions: 2 μM trans-retinoic acid, 10 days, gelatin coated plates
Procedure: One of the most important characteristics of stem-like cells is pluripotency. To investigate the SR-iPS stem cells have the multilineage differention potential as embryonic stem cells in vitro, different passage of iPS cells were used to form embryo bodis (EBs) one week's culture without passing in SR medium without Lif. The EBs continues to differentiate on gelatin coated plates and induced by 2 μM trans-retinoic acid for an additional 10 days. Expression of endoderm-, mesoderm-, and ectoderm-specific markers was examined by using antibodies raised against α-fetoprotein, smooth muscle actin, and β-tubulin III, respectively (21). For more specific cell lineage such as cardiomyocyte and smooth muscle cells differentiation, EBs were transferred to collagen-coated plate which contained α-MEM (cardiac differentiation medium) supplemented with 10 ng/ml platelet-derived growth factor-BB (PDGF-BB). Vascular endothelial growth medium supplemented with 50 ng/ml vascular endothelial growth factor (VEGF) was used for the smooth muscle growth differentiation. Two weeks after culturing the EBs in these medium, the cell morphology were examined by Immunofluorescent Staining with Troponin C and smooth muscle actin antibodies.

[4] = test system: ES-like cells; assay: Maintenance of ES-like cells in SR-containing medium with growth factors; conditions: bFGF 4 ng/ml and Lif added together to SR-containing medium
Procedure: as §1
To investigate the possibility that serum replacement (SR)-containing medium can promote the reprogramming and dedifferentiation of skin fibroblast cells into pluripotent stem-like cells, mouse skin fibroblast cells were cultured in fibroblast growth medium, and were then transferred by trypsinization to plates holding SR-containing medium. […]

[5] = test system: Ca^2+ influx; assay: Ca2+ signalling in fibroblast cells after transfer into SR-containing medium; conditions: after transfer of fibroblast cells
From the text: as §2

[6] = test system: Oct4 promoter; assay: Methylation status of the Oct4 promoter in fibroblast cells; conditions: before and after contact with SR medium

Compound: CCCCC/C=C\C/C=C\C/C=C\C/C=C\CCCC(=O)O [acarchodonic acid]
- reprogramming / dedifferentiation of skin fibroblast cells into stem cell-like cells [1]: required to create stem-like cells

Compound: C/C=C(/C)C(=O)O[C@H]1C(C)=C2[C@H]([C@@H]1OC(=O)CCCCCCC)[C@@](C)(OC(C)=O)C[C@H](OC(=O)CCC)[C@@]1(O)[C@H]2OC(=O)[C@@]1(C)O [Thapsigargin, reference compound]
- FGFR3 expression [2]: down-regulated FGF receptor 3 (FGFR3) expression
- FGFR3 expression ([2]; listed as thapsigargin): prevented
- conversion of skin fibroblast cells into stem cell-like cells [1]: prevented conversion of the fibroblast cells into stem-like cells
- conversion of skin fibroblast cells into stem cell-like cells ([1]; listed as thapsigargin): prevented

Compound: CC1=C(/C=C/C(C)=C/C=C/C(C)=C/C(=O)O)C(C)(C)CCC1 [retinonic acid, trans-retinoic acid]
- differentiation into three germ layers (AFP, SM-Actin, β-tubulin III staining) [3]: differentiation of the embryonic bodies into three germ layers

Compound: bFGF: basic fibroblast growth factor (R&D System Cat# 233-FB)
- division and differentiation of ES-like cells [4]: promote division of the ES-like cells, while preventing differentiation of these cells

Compound: lipid-rich BSA: AlbuMAX I is the high-lipid BSA (Invitrogen)
- Ca^2+ influx / signalling [5]: induced
- FGFR3 expression after transfer into medium ([2]; 2, 4, 8, 12 hours after transfer): induced
- methylation status of the Oct4 promoter [6]: induced
- reprogramming / dedifferentiation of skin fibroblast cells into stem cell-like cells [1]: promoted the dedifferentiation of skin fibroblast cells into stem cell-like cells
- reprogramming / dedifferentiation of skin fibroblast cells into stem cell-like cells ([1]; listed as high-lipid BSA): required to create stem-like cells
